{"source": "patent US20100172991A1", "about": "“Extended Release Formulation and Methods of Treating Adrenergic Dysregulation” (priority 2007, published 2010)", "key": {"[1]": {"system": "systolic and diastolic blood pressure", "assay": "animal or person", "procedure": "Mean baseline ABPM data for the three treatment groups were compared with mean data obtained on Day 26 (last day of treatment) and on Days 27 and 28. A more detailed PK/PD analysis was conducted by using the individual patient ABPM data to compare the blood pressure profile at Baseline and on Day 26 of treatment. The daytime (0- to 12-hour) intervals were used in the analysis, since pharmacokinetic data were collected on Day 25, over the daytime 12-hour dosing interval at steady state. In order to investigate the maintenance of effect at the tail end of the inter-dosing interval, differences between the SBP, DBP, and HR values at Baseline and the last two hours in the inter-dosing interval (Hours 11 and 12) on Day 26 were calculated for each patient. Paired t-tests were performed to test the significance of these differences between Baseline and the last two measuring times. The approach taken to quantify the effects of clonidine on blood pressure was to calculate the difference between the areas under the BP vs. time curves (AUCBP) at Baseline and on Day 26. These values were used to relate the pharmacodynamic effect to dose, as well as to conduct the PK/PD analyses.\nPharmacokinetic-pharmacodynamic modeling was conducted using the blood pressure response data and the Cmax, Cmin and AUCτ values at Day 25 of dosing. […] The data in Table 8 summarize the PK/PD parameters from the sigmoidal Emax model."}, "[2]": {"settings": "traditional oral formulation; cited from earlier work"}, "[3]": {"settings": "sigmoidal Emax model, Day 25 exposure"}}, "note": "Read-outs that look alike come from different tables or passages of the source.", "data": [{"compound": "Clc1cccc(Cl)c1NC1=NCCN1", "note": "[clonidine, 2,6-dichloro-N-2-imidazolidinylidene benzeneamine]", "values": [{"measurement": "EC50", "setting": "[1]; Homo sapiens, 600 h, read-out: EC50, Diastolic BP vs Cmax", "value": 0.431, "unit": "ng/mL"}, {"measurement": "EC50", "setting": "[1]; Homo sapiens, 600 h, read-out: EC50, Diastolic BP vs Cmin", "value": 0.341, "unit": "ng/mL"}, {"measurement": "EC50", "setting": "[1]; Homo sapiens, 600 h, read-out: EC50, Systolic BP vs Cmax", "value": 0.458, "unit": "ng/mL"}, {"measurement": "EC50", "setting": "[1]; Homo sapiens, 600 h, read-out: EC50, Systolic BP vs Cmin", "value": 0.359, "unit": "ng/mL"}, {"measurement": "EC90", "setting": "[1]; Homo sapiens, 600 h, read-out: EC90, Diastolic BP vs AUCτ", "value": 5.92, "unit": "ng/mL"}, {"measurement": "Emax (ΔBP), Diastolic BP vs AUCτ", "setting": "[1]; [3]", "value": 16.8}, {"measurement": "Emax (ΔBP), Diastolic BP vs Cmax", "setting": "[1]; [3]", "value": 16.7}, {"measurement": "Emax (ΔBP), Diastolic BP vs Cmin", "setting": "[1]; [3]", "value": 16.8}, {"measurement": "Emax (ΔBP), Systolic BP vs AUCτ", "setting": "[1]; [3]", "value": 24.3}, {"measurement": "Emax (ΔBP), Systolic BP vs Cmax", "setting": "[1]; [3]", "value": 24.3}, {"measurement": "Emax (ΔBP), Systolic BP vs Cmin", "setting": "[1]; [3]", "value": 24.4}, {"measurement": "biological half-life", "setting": "[2]", "value": "four to six"}]}]}
